Data on three substances can be found in patent US9846167B2 (priority 2013, dated 2017).

Like-named read-outs stand apart in the source and are kept apart here.

Assay [1] is classed as binding. The following applies: hydroxyapatite nanoparticles in PBS, single stain, FIG. 1. Here is the method:
Samples were analyzed using the Apogee A50 Nanoscale Flow Cytometer.
An isotype negative control was prepared for each Alendronate compound. […] (AL-Cy5) was Notdronate-Cy5 (NT-Cy5).

The conditions of assay [2]: single stain.

Consider FITC alendronate [AL-FITC], for which the “probe-positive events (AL-positive / NT-positive background)” value in assay [1] is “significantly higher AL-positive events”.

Turning to fluorescein-4-butanol [NT-FITC], in assay [1], the “probe-positive events (AL-positive / NT-positive background)” value is reported as “minimal”. Also, the “probe-positive events, probe versus its isotype negative control” value is reported as “higher count of events” in assay [2] (MGUS patient plasma, FIG. 4); “higher count of events” in assay [2] (Multiple Myeloma patient plasma, FIG. 8); “higher count of events” in assay [2] (plasma of another MGUS patient, FIG. 6). Moreover, the probe-positive events result in assay [2] (healthy volunteer plasma, FIG. 2) is reported as “significantly higher”.

In the case of Sulfo-Cy5 alendronate [AL-Cy5], the “probe-positive events (AL-positive / NT-positive background)” value in assay [1] is reported as “significantly higher AL-positive events”.
